PMC10449633 (Nature Chemical Biology, 2023)
Several values for one entry are separate records, joined by “and”; a condition that tells them apart may be missing. Equal values may be shown once.

What was measured:
Sec61 = molecular target: T1, Sec61 (Homo sapiens, UniProt P61619); assay: cell-based; type: cell-based
T1 construct: endogenous in cells

[1] = tested on: mouse skin inflammation model; design: method as in PMID 26019221; details: at its maximum tolerated dose; cited from earlier work

T1 sequence (P61619 whole entry): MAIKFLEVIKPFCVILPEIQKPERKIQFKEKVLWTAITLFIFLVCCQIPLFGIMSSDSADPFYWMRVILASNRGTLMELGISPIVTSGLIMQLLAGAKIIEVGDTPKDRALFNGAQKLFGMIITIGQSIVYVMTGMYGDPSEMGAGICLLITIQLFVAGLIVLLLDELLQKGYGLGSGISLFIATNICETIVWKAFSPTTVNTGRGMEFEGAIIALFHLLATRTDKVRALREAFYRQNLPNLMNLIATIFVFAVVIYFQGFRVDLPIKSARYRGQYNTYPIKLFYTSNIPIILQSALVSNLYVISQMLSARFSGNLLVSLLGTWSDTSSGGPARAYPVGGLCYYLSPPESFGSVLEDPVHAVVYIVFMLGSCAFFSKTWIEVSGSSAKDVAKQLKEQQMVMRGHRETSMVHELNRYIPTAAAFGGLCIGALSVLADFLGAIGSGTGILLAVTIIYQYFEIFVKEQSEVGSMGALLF
T1 sequence (P60059 whole entry, further chain): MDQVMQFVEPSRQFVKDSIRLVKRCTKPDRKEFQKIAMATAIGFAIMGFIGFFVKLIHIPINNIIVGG
T1 sequence (P60468 whole entry, further chain): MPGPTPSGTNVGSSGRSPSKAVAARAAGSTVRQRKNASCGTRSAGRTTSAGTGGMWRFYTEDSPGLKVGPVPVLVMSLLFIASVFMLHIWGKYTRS

Substance: mycolactone A/B
- potency against VCAM-GLuc relative to pPL-GLuc (Sec61; HEK293T, 24 h): equipotent
- secreted luciferase activity (% of no-drug control) (Sec61; VCAM signal peptide, Drug nM (log10) 0.18303): 91.1752% and 96.3566% and 105.08% and 96.2111%
- secreted luciferase activity (% of no-drug control) (Sec61; VCAM signal peptide, Drug nM (log10) 0.660151): 60.5653% and 60.6911% and 72.2191% and 65.68%
- secreted luciferase activity (% of no-drug control) (Sec61; VCAM signal peptide, Drug nM (log10) 1.13727): 69.7373% and 62.7916% and 84.5753% and 63.8152%
- secreted luciferase activity (% of no-drug control) (Sec61; VCAM signal peptide, Drug nM (log10) 1.61439): 23.3051% and 17.9704% and 24.3586% and 17.2696%
- secreted luciferase activity (% of no-drug control) (Sec61; VCAM signal peptide, Drug nM (log10) 2.09151): 9.614% and 7.324% and 15.2923% and 7.158%
- secreted luciferase activity (% of no-drug control) (Sec61; VCAM signal peptide, Drug nM (log10) 2.56864): 5.834% and 4.881% and 8.3778% and 4.722%
- secreted luciferase activity (% of no-drug control) (Sec61; VCAM signal peptide, Drug nM (log10) 3.04576): 4.831% and 3.708% and 6.049% and 3.853%
- secreted luciferase activity (% of no-drug control) (Sec61; VCAM signal peptide, Drug nM (log10) 3.52288): 3.813% and 3.595% and 4.497% and 3.349%
- secreted luciferase activity (% of no-drug control) (Sec61; VCAM signal peptide, Drug nM (log10) 4): 4.399% and 3.701% and 4.702% and 3.31%
- secreted luciferase activity (% of no-drug control) (Sec61; VCAM signal peptide, Drug nM (log10) -0.29409): 91.3897% and 90.48% and 98.9457% and 92.5099%
- secreted luciferase activity (% of no-drug control) (Sec61; pPL signal peptide, Drug nM (log10) 0.18303): 96.941% and 113.105% and 106.161% and 90.9819%
- secreted luciferase activity (% of no-drug control) (Sec61; pPL signal peptide, Drug nM (log10) 0.660151): 87.4346% and 105.37% and 92.2325% and 88.4507%
- secreted luciferase activity (% of no-drug control) (Sec61; pPL signal peptide, Drug nM (log10) 1.13727): 90.1482% and 100.766% and 90.4471% and 85.7727%
- secreted luciferase activity (% of no-drug control) (Sec61; pPL signal peptide, Drug nM (log10) 1.61439): 34.1743% and 36.4459% and 25.7816% and 32.3021%
- secreted luciferase activity (% of no-drug control) (Sec61; pPL signal peptide, Drug nM (log10) 2.09151): 11.7024% and 15.7348% and 12.066% and 11.9677%
- secreted luciferase activity (% of no-drug control) (Sec61; pPL signal peptide, Drug nM (log10) 2.56864): 10.1212% and 10.0148% and 7.898% and 9.649%
- secreted luciferase activity (% of no-drug control) (Sec61; pPL signal peptide, Drug nM (log10) 3.04576): 5.549% and 7.948% and 6.334% and 6.2294%
- secreted luciferase activity (% of no-drug control) (Sec61; pPL signal peptide, Drug nM (log10) 3.52288): 4.849% and 7.368% and 5.461% and 6.2207%
- secreted luciferase activity (% of no-drug control) (Sec61; pPL signal peptide, Drug nM (log10) 4): 4.167% and 6.905% and 5.234% and 5.9772%
- secreted luciferase activity (% of no-drug control) (Sec61; pPL signal peptide, Drug nM (log10) -0.29409): 102.214% and 111.849% and 98.9284% and 92.0234%
- efficacy in mouse skin inflammation model [1]: modest efficacy
